# Data: US12252490B2, “Inhibiting deubiquitinase USP25 and USP28” (Valo Health, Inc., priority 2018, dated 2025)
# Molecular target: T1, USP28 (USP28-5(1-1077)-TEV-6*His; LifeSensors) (Homo sapiens, UniProt Q96RU2)
# T1 construct: construct USP28 (USP28-5(1-1077)-TEV-6*His; LifeSensors); TEV cleavage site (C); 6xHis (C); purchased LifeSensors
# T1 sequence (Q96RU2 1-1077): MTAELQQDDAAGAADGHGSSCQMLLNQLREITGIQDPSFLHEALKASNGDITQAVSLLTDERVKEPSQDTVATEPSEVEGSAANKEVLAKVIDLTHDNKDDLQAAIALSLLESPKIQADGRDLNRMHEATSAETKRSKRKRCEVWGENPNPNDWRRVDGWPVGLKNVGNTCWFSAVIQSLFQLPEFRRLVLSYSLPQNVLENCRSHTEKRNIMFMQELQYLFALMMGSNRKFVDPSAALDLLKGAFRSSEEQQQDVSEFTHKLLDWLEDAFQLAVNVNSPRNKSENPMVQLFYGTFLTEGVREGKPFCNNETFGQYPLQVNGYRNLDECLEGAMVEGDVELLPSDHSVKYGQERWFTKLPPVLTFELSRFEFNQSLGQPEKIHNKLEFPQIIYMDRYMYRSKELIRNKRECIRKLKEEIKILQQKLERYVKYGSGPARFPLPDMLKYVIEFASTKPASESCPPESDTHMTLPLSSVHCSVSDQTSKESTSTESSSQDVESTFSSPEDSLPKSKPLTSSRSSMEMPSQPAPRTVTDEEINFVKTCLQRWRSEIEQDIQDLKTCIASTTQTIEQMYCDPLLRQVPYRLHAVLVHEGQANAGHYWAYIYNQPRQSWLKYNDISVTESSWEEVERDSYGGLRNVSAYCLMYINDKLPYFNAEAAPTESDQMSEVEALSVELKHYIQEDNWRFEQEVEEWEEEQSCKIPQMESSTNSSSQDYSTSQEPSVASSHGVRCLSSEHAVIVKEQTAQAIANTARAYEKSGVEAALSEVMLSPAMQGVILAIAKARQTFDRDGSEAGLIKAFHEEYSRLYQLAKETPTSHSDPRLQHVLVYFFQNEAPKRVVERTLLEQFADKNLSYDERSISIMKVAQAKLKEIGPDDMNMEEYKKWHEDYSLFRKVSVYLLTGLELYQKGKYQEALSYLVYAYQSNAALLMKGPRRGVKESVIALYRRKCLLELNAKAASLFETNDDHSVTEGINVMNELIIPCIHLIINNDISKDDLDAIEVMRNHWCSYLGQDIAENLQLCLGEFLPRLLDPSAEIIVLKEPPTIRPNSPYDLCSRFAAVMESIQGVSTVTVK
# Experiment: Ubiquitin-Rhodamine 110 Assay for USP28 Activity, Example A-1(b)
# Type: biochemical
# Conditions: 75 pM enzyme, 25 nM Ub-Rh110, 384-well follow-up format
# Method: Each assay was performed in a final volume of 20 μL in assay buffer containing 20 mM Tris-HCl (pH 8.0, (1M Tris-HCl, pH 8.0 solution; Corning 46-031-CM)), 2 mM CaCl2 (1M Calcium Chloride solution; Sigma #21114) 2 mM BME (2-Mercaptoethanol; Sigma 63689-25ML-F), 0.01% Prionex ([…] filtered, Sigma #G-0411), and 0.01% Triton X-100. Stock compound solutions were stored at −20° C. as 10 mM in DMSO. Up to 1 month prior to the assay, 2 mM test compounds were pre-dispensed into assay plates (Black, low volume; Corning #3820) and frozen at −20° C. Prestamped assay plates were allowed to come to room temperature on the day of the assay. For the screen, 100 nL of 2 mM was pre-dispensed for a final screening concentration of 10 μM (DMSO(fc)=0.5%). Enzyme (USP28, construct USP28 (USP28-5(1-1077)-TEV-6*His; LifeSensors) concentration and incubation times were optimized for the maximal signal-to-background while maintaining initial velocity conditions at a fixed substrate concentration. The final concentration of the enzyme in the assay was 400 pM. Final substrate (Ub-Rh110; Ubiquitin-Rhodamine 110, R&D Systems #U-555) concentration was 25 nM with [Ub-Rh110]<<Km. 10 μL of 2× enzyme was added to assay plates (pre-stamped with compound) either simultaneously with 2×Ub-Rh110 or preincubated with USP28 40 minutes prior to the addition of 10 μL of 2×Ub-Rh110 to compound plates. Plates were incubated stacked for 90 minutes at room temperature before fluorescence was read on the Envision (Excitation at 485 nm and Emission at 535 nm; Perkin Elmer) or on the PheraSTAR (Excitation at 485 nm and Emission at 535 nm; BMG Labtech).
# For follow-up studies, each assay was performed in a final volume of 15 μL in assay buffer containing 20 mM Tris-HCl (pH 8.0, (1M Tris-HCl, pH 8.0 solution; Corning 46-031-CM)), 3 mM BME (2-Mercaptoethanol; Sigma 63689-25ML-F), 0.03% BGG (0.22 μM filtered, Sigma, G7516-25G), and 0.01% Triton X-100 (Sigma, T9284-10L). Nanoliter quantities of either an 8-point or 10-point, 3-fold serial dilution in DMSO was pre-dispensed into assay plates (Perkin Elmer, ProxiPlate-384 F Plus, #) for a final test concentration of either 25 μM to 11 nM or 25 μM to 1.3 nM, respectively. Enzyme USP28, construct USP28 (USP28-5(1-1077)-TEV-6*His; LifeSensors) concentration and incubation times were optimized for the maximal signal-to-background while maintaining initial velocity conditions at a fixed substrate concentration. The final concentration of the enzyme in the assay was 75 pM. Final substrate (Ub-Rh110; Ubiquitin-Rhodamine 110, R&D Systems #U-555) concentration was 25 nM with [Ub-Rh110]<<Km. 5 μL of 2× enzyme was added to assay plates (pre-stamped with compound) preincubated with USP28 for 30 minutes and then 5 μL of 2×Ub-Rh110 was added to assay plates. Plates were incubated stacked for 20 minutes at room temperature before 5 μL of stop solution was added (final concentration of 10 mM citric acid (Sigma, 251275-500G)). Fluorescence was read on the Envision (Excitation at 485 nm and Emission at 535 nm; Perkin Elmer) or on the PheraSTAR (Excitation at 485 nm and Emission at 535 nm; BMG Labtech).
# For assay formats Examples A-1a, A-1b, and A-2, data were reported as percent inhibition compared with control wells based on the following equation: % inh=1−((FLU−AveLow)/(AveHigh−AveLow)) where FLU=measured Fluorescence, AveLow=average Fluorescence of no enzyme control (n=16), and AveHigh=average Fluorescence of DMSO control (n=16). IC50 values were determined by curve fitting of the standard 4 parameter logistic fitting algorithm included in the Activity Base software package: IDBS XE Designer Model205. Data is fitted using the Levenburg Marquardt algorithm.
row,SMILES,Assay A-1(b) (IC50 range)
1,"CCn1ccc2cc(C(=O)NC[C@@H](C)c3cc(F)c(N4CCNCC4)cc3F)cnc21 (single isomer, unassigned) [Example 2-1]",++ (“++”: 0.2-2 μM)
2,"CCn1ccc2cc(C(=O)NC[C@H](C)c3cc(F)c(N4CCNCC4)cc3F)cnc21 (single isomer, unassigned) [Example 2-2]",+ (“+”: 2-10 μM)
3,"CCn1ccc2cc(C(=O)NC[C@H](C)c3cc(F)c(N4CC5CCC(C4)N5)cc3F)cnc21 (single isomer, unassigned) [Example 2-3]",++ (“++”: 0.2-2 μM)
4,"CCn1ccc2cc(C(=O)NC[C@@H](C)c3cc(F)c(N4CC5CCC(C4)N5)cc3F)cnc21 (single isomer, unassigned) [Example 2-4]",++ (“++”: 0.2-2 μM)
5,"CCn1ccc2cc(C(=O)NC[C@H](C)c3cc(F)c(N4CC5CCC(C4)N5)cc3F)nnc21 (single isomer, unassigned) [Example 4-2]",++ (“++”: 0.2-2 μM)
6,"CCn1ccc2cc(C(=O)NC[C@@H](C)c3cc(F)c(N4CC5CCC(C4)N5)cc3F)nnc21 (single isomer, unassigned) [Example 4-3]",++ (“++”: 0.2-2 μM)
7,"CCn1ccc2cc(C(=O)NCCc3cc(F)c(N4CC5CCC(C4)N5)cc3F)cnc21 [Example 1-1, N-[2-(4-[3,8-diazabicyclo[3.2.1]octan-3-yl]-2,5-difluorophenyl)ethyl]-1-ethyl-1H-pyrrolo[2,3-b]pyridine-5-carboxamide]",+++ (“+++”: 0.05-0.2 μM)
8,"O=C(NCCc1ccc(N2CCNCC2)cc1)c1cnc2[nH]ccc2c1 [Example 1-2, N-(4-(piperazin-1-yl)phenethyl)-1H-pyrrolo[2,3-b]pyridine-5-carboxamide]",+ (“+”: 2-10 μM)
9,"Cn1ccc2cc(C(=O)NCCc3ccc(N4CCNCC4)cc3)cnc21 [Example 1-3, 1-methyl-N-(4-(piperazin-1-yl)phenethyl)-1H-pyrrolo[2,3-b]pyridine-5-carboxamide]",++ (“++”: 0.2-2 μM)
10,"CCn1ccc2cc(C(=O)NCCc3ccc(N4CCNCC4)cc3)cnc21 [Example 1-4, 1-ethyl-N-(4-(piperazin-1-yl)phenethyl)-1H-pyrrolo[2,3-b]pyridine-5-carboxamide]",+++ (“+++”: 0.05-0.2 μM)
11,"Nc1c(C(=O)NCCc2ccc(N3CCNCC3)cc2)cnc2[nH]ccc12 [Example 1-5, 4-amino-N-(4-(piperazin-1-yl)phenethyl)-1H-pyrrolo[2,3-b]pyridine-5-carboxamide]",+ (“+”: 2-10 μM)
12,"CCn1ccc2cc(C(=O)NCCc3ccc(N4CC5CCC(C4)N5)cc3)cnc21 [Example 1-6, N-(4-(3,8-diazabicyclo[3.2.1]octan-3-yl)phenethyl)-1-ethyl-1H-pyrrolo[2,3-b]pyridine-5-carboxamide]",++++ (“++++”: 0.001-0.05 μM)
13,"CCn1ccc2cc(C(=O)NCCc3cc(F)c(N4CCNCC4)cc3F)cnc21 [Example 1-7, N-(2,5-difluoro-4-(piperazin-1-yl)phenethyl)-1-ethyl-1H-pyrrolo[2,3-b]pyridine-5-carboxamide]",+++ (“+++”: 0.05-0.2 μM)
14,O=C(NCCc1ccc(N2CCNCC2)cc1)c1cnc2c(ccn2CC(F)(F)F)c1 [Example 1-8],+++ (“+++”: 0.05-0.2 μM)
15,"CC(C)(O)Cn1ccc2cc(C(=O)NCCc3cc(F)c(N4CC5CCC(C4)N5)cc3F)cnc21 [Example 1-9, N-(4-(3,8-diazabicyclo[3.2.1]octan-3-yl)-2,5-difluorophenethyl)-1-(2-hydroxy-2-methylpropyl)-1H-pyrrolo[2,3-b]pyridine-5-carboxamide]",− (“−”: >10 μM)
16,"CCn1ccc2cc(C(=O)NCCc3ccc(N4CC5CCC(C4)N5)c(F)c3)cnc21 [Example 1-10, N-(4-(3,8-diazabicyclo[3.2.1]octan-3-yl)-3-fluorophenethyl)-1-ethyl-1H-pyrrolo[2,3-b]pyridine-5-carboxamide]",+++ (“+++”: 0.05-0.2 μM)
17,"CCn1cc(Cl)c2cc(C(=O)NCCc3ccc(N4CCNCC4)cc3)cnc21 [Example 3-1, 3-Chloro-1-ethyl-N-[2-[4-(piperazin-1-yl)phenyl]ethyl]-1H-pyrrolo[2,3-b]pyridine-5-carboxamide]",+++ (“+++”: 0.05-0.2 μM)
18,"O=C(NCCc1ccc(N2CCNCC2)cc1)c1cnc2[nH]cc(Cl)c2c1 [Example 3-2, 3-chloro-N-(4-(piperazin-1-yl)phenethyl)-1H-pyrrolo[2,3-b]pyridine-5-carboxamide]",+ (“+”: 2-10 μM)
19,"CCn1ccc2cc(C(=O)NCCc3cc(F)c(N4CC5CCC(C4)N5)cc3F)nnc21 [Example 4-1, N-[2-(4-[3,8-diazabicyclo[3.2.1]octan-3-yl]-2,5-difluorophenyl)ethyl]-7-ethyl-7H-pyrrolo[2,3-c]pyridazine-3-carboxamide]",+++ (“+++”: 0.05-0.2 μM)
20,"CCn1cc(Cl)c2cc(C(=O)NCCc3cc(F)c(N4CC5CCC(C4)N5)cc3F)nnc21 [Example 4-4, N-(4-(3,8-diazabicyclo[3.2.1]octan-3-yl)-2,5-difluorophenethyl)-5-chloro-7-ethyl-7H-pyrrolo[2,3-c]pyridazine-3-carboxamide]",+++ (“+++”: 0.05-0.2 μM)
